Source: patent US12534477B2, “Compound having KHK inhibitory effect” (HANGZHOU ZHONGMEIHUADONG PHARMACEUTICAL CO., LTD., priority 2019, dated 2026)

Columns and labels:
CYP1A2 = CYP1A2 (Homo sapiens (Human), UniProt P05177); type: in vitro ADME; details: human, microsomes, 10 min
Experimental: The inhibitory effect of test compounds on the activity of human hepatic microsomal cytochrome P450 isozymes (CYP1A2, CYP2C9, CYP2C19, CYP2D6 and CYP3A4) was determined.
First, the test compound (10 mM) was diluted in gradient to prepare working solutions (100×final concentration) with working solution concentrations: 5, 1.5, 0.5, 0.15, 0.05, 0.015, 0.005 mM, respectively, and at the same time, working solutions of each positive inhibitor of P450 isozymes (CYP1A2, CYP2C9, CYP2C19, CYP2D6 and CYP3A4) and its specific substrate mixture were prepared. Human liver microsomes frozen in a −80° C. refrigerator were thawed on ice, and diluted with PB (phosphate buffer) after all the human liver microsomes were dissolved, to prepare a working solution at a certain concentration (0.253 mg/mL). 20 μl substrate mixture was added to the reaction plate (20 μL PB was added to the Blank wells) while 158 μL human liver microsome working solution was added to the reaction plate which was placed on ice for later use. At this time, 2 μL of each concentration of the test compound (N=1) and the specific inhibitor (N=2) were added to the corresponding wells, and the corresponding organic solvents were added to the groups without inhibitors (the test compound or the positive inhibitor) as control samples (1:1 DMSO:MeOH for the test compound control sample, and 1:9 DMSO:MeOH for the positive control sample). After pre-incubation in 37° C. water bath for 10 min, 20 μL coenzyme factor (NADPH) solution was added to the reaction plate, and incubated in 37° C. water bath for 10 min. 400 μL cold acetonitrile solution (200 ng/mL Tolbutamide and Labetalol as the internal standard) was added to stop the reaction. The reaction plate was placed on a shaker and shaken for 10 min. The mixture was centrifuged at 4,000 rpm for 20 min, and 200 μl the supernatant was added to 100 μL water for sample dilution. Finally, the plate was sealed, shaken, mixed well and detected by LC/MS/MS.

[1] = molecular target: Recombinant Human Ketohexokinase (KHK) (Homo sapiens (Human), UniProt P50053); assay: Ketohexokinase assay (KHK assay), ADP-Glo; type: biochemical
Experimental: • 1. EnVision multilabel reader, Perkin Elmer; • 2. OptiPlate 384-well microplate, Perkin Elmer, Cat. No. 6007290; • 3. Recombinant Human Ketohexokinase (KHK), R&D Cat. No.: 8177-HK-020, Lot No.: DDFK0117092; • 4. Fructose (D(−)-Fructose), SCR Cat. No.: 36003034; and • 5. ADP-Glo kinase assay kit, Promega_Cat. No.: V9101.
1. preparation of Dilution Buffer containing 50 mM hydroxyethylpiperazine […] (Hepes), 140 mM KCl, 3.5 mM MgCl2, and 0.01% bovine serum albumin (BSA), pH 7.4.
2. A working solution of ketohexokinase at 2.5 times concentration was prepared with Dilution Buffer, with 50 nM ketohexokinase and 12.5 mM fructose.
3. A working solution of adenosine triphosphate (ATP) at 2.5 times concentration was prepared with Dilution Buffer, with a concentration of 250 μM.
4. Each compound was diluted starting at a concentration of 500 μM, 3-fold diluted for 9 concentration points. The final concentration of the compound in the reaction system started from 10 μM and the final concentration of dimethyl sulfoxide (DMSO) was 2%.
5. A 96-well plate was prepared as a reaction plate, and was incubated at room temperature for 5 min after adding 6 μL ketohexokinase working solution at 2.5 times concentration to each well and further adding 3 μL compound working solution to each well.
6. The first well of each row was a positive control for a compound, i.e. the same volume of the buffer was added to replace the compound and ketohexokinase. The last well was a negative control for the compound, i.e. the same volume of Dilution Buffer was added instead of the compound.
7. 6 μL ATP working solution was added to each well in a 96-well reaction plate to initiate the kinase reaction. The kinase reaction was incubated in a constant temperature heater at 28° C. for 1 h.
1. A384 plate was prepared as a detection plate, and firstly 5 μL ADP-Glo reagent was added.
2. 5 μL kinase reaction mixture from the reaction plate was added to each well and incubated in a constant temperature heater at 28° C. for 30 min.
3. 10 μL kinase detection reagent was added to each well and incubated in a constant temperature heater at 28° C. for 30 min.
4. The detection plate was placed in an EnVision multilabel reader to read the chemiluminescent signal.

Chain of CYP1A2 (P05177 whole entry): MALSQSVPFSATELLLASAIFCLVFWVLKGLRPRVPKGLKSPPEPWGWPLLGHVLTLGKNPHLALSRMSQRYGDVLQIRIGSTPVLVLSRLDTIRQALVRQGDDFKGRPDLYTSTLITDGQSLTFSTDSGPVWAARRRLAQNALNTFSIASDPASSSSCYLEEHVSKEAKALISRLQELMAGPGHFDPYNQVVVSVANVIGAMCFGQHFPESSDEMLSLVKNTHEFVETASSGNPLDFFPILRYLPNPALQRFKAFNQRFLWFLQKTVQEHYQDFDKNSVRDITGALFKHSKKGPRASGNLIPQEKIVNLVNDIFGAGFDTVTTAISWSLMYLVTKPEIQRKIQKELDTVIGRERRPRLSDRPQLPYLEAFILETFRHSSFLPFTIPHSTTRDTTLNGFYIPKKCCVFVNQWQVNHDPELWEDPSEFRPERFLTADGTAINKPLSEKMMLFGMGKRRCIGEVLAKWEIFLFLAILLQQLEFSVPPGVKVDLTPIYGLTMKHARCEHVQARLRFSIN
Chain of Recombinant Human Ketohexokinase (KHK) (P50053 whole entry): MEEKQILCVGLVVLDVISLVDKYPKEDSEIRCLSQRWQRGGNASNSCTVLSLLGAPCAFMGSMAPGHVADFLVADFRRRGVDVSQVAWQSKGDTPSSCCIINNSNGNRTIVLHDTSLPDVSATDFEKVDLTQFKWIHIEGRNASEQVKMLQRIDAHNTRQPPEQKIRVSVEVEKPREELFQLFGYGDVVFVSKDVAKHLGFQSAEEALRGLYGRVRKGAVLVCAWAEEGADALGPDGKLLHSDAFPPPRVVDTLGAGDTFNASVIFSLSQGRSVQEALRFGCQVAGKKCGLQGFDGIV

- IC50 (CYP1A2): > 50 µM
- IC50 [1]: 0.049 µM
SMILES: C[C@H]1CCN1c1nc(N2C[C@@H]3[C@@H](CC(=O)O)[C@@H]3C2)c2ccsc2n1 [WX004]
